Test [1] concerns ERK. In words: PDGF-induced ERK phosphorylation in PASMC. It counts as cell-based. Particulars: treatment as for HUVEC. Here is the method: (§1) Cell culture. Human umbilical vein endothelial cells (HUVEC) and pulmonary aortic smooth muscle cells (PASMC) were obtained from Clonetics and maintained in endothelial cell basal medium-2, (EBM-2; Clonetics) and smooth muscle medium-2 (SmGM-2; Clonetics), respectively. Cells were cultured at 37° C. under a humidified atmosphere containing 5% CO2. For experimental purposes, cells were plated in 8 100-mm plastic dishes at 5,000 cells/cm^2 and were grown to confluence before overnight serum starvation. Cells were treated with vehicle or with a PCK3145 derivative diluted in 0.1 N NaOH, and stimulated with 50 ng/ml VEGF, PDGF or with 1 μM S1P.
(§2) Immunoprecipitation and immunoblotting procedures. After treatment, cells were washed once with phosphate-buffered saline (PBS) containing 1 mM sodium orthovanadate and were incubated in the same medium for 1 h at 4° C. The cells were solubilized on ice in lysis buffer (150 mM NaCl, 10 mM Tris-HCl, pH 7.4, 1 mM EDTA, 1 mM EGTA, 0.5% Nonidet P-40, 1% Triton X-100) containing 1 mM sodium orthovanadate. The cells were then scraped from the culture dishes and the resulting lysates were clarified by centrifugation at 10,000 g for 10 min. Protein concentrations were determined using the micro bicinchoninic acid method. For immunoprecipitation studies, lysates were clarified by a 1 h incubation at 4° C. with a mixture of Protein A/Protein G Sepharose beads. […]

In another test the target is T1, VEGFR-2 (Homo sapiens, UniProt P35968).
T1 construct: host or cells: HUVEC
In words: VEGF-induced VEGFR-2 phosphorylation in HUVEC (immunoprecipitation, western blot). The format is cell-based. As to the method: as §1
as §2, with “beads. After removal of the Sepharose beads by low-speed centrifugation, identical amounts of protein (200 μg) from each sample were transferred to fresh tubes and incubated in lysis buffer overnight at 4° C. in the presence of 2 μg/ml of specific antibodies.” for “beads.”
The multifunctionality of VEGF at the cellular level results from its ability to initiate a diverse, complex and integrated network of signaling pathways via its major receptor, VEGFR-2. […] After each treatment, equal amounts of protein were immunoprecipitated with anti-VEGFR-2 polyclonal antibodies and analysed by Western blotting.

Test [2] concerns ERK. In words: Growth factor-induced ERK phosphorylation in HUVEC (western blot). The format is cell-based, Human. Here is the method: as §1
Immunoprecipitation and immunoblotting procedures. After treatment, cells were washed once with phosphate-buffered saline (PBS) containing 1 mM sodium orthovanadate and were incubated in the same medium for 1 h at 4° C. The cells were solubilized on ice in lysis buffer (150 mM NaCl, 10 mM Tris-HCl, pH 7.4, 1 mM EDTA, 1 mM EGTA, 0.5% Nonidet P-40, 1% Triton X-100) containing 1 mM sodium orthovanadate. The cells were then scraped from the culture dishes and the resulting lysates were clarified by centrifugation at 10,000 g for 10 min. Protein concentrations were determined using the micro bicinchoninic acid method. For immunoprecipitation studies, lysates were clarified by a 1 h incubation at 4° C. with a mixture of Protein A/Protein G Sepharose beads. After removal of the Sepharose beads by low-speed centrifugation, identical amounts of protein (200 μg) from each sample were transferred to fresh tubes and incubated in lysis buffer overnight at 4° C. in the presence of 2 μg/ml of specific antibodies. Immunocomplexes were collected by incubating the mixture with 25 μl (50% suspension) of Protein A—(rabbit primary antibody) or Protein G—(mouse primary antibody) Sepharose beads, for 2 h. Nonspecifically-bound material was removed by washing the beads three times in 1 ml of lysis buffer containing 1 mM sodium orthovanadate, and bound material was solubilized in 25 μl of two-fold concentrated Laemmli sample buffer, boiled 5 min, and resolved by SDS-PAGE. The proteins were transferred onto polyvinylidene difluoride (PVDF) membranes, blocked 1 h at room temperature with Tris-buffered saline/Tween 20 (147 mM NaCl, 20 mM Tris/HCl, pH 7.5, and 0.1% Tween 20) containing 2% bovine serum albumin and incubated overnight at 4° C. with primary antibody.
VEGF is a strong activator of ERKs (Extracellular-signal-Regulated protein Kinases) 1 and 2 via VEGF receptor 2. In order to test the ability of the PCK3145 derivative in potentially antagonizing VEGF-mediated ERK phosphorylation, serum-starved quiescent endothelial cells (HUVEC) were incubated with vehicle (phosphate-buffered saline (PBS) pH 7.4) or PCK3145 derivative (300 μg/ml) for 24 h and then stimulated with VEGF, bFGF (basic Fibroblast Growth Factor) or S1P (sphingosine-1-phosphate). Cells were washed with PBS containing NaF/Na3VO4 and incubated in the same medium buffer for 1 h at 4° C. The cells were scraped from the culture dishes and the resulting lysates clarified by centrifugation. Western blotting and immunodetection using anti-phosphoERK and anti-ERK antibodies was then performed.

For another test, the target named is T2, PDGF receptor (PDGFR) (Homo sapiens, UniProt P09619).
T2 construct: host or cells: PASMC (pulmonary aortic smooth muscle cells)
In words: PDGF-induced PDGFR phosphorylation in PASMC. It counts as cell-based. Particulars: treatment as for HUVEC. As to the method:
as §1, §2

Entries after “also recorded” stand apart in the source; their conditions may differ. Where no end group is shown, it is not given here.

T1 sequence (P35968 20-1356): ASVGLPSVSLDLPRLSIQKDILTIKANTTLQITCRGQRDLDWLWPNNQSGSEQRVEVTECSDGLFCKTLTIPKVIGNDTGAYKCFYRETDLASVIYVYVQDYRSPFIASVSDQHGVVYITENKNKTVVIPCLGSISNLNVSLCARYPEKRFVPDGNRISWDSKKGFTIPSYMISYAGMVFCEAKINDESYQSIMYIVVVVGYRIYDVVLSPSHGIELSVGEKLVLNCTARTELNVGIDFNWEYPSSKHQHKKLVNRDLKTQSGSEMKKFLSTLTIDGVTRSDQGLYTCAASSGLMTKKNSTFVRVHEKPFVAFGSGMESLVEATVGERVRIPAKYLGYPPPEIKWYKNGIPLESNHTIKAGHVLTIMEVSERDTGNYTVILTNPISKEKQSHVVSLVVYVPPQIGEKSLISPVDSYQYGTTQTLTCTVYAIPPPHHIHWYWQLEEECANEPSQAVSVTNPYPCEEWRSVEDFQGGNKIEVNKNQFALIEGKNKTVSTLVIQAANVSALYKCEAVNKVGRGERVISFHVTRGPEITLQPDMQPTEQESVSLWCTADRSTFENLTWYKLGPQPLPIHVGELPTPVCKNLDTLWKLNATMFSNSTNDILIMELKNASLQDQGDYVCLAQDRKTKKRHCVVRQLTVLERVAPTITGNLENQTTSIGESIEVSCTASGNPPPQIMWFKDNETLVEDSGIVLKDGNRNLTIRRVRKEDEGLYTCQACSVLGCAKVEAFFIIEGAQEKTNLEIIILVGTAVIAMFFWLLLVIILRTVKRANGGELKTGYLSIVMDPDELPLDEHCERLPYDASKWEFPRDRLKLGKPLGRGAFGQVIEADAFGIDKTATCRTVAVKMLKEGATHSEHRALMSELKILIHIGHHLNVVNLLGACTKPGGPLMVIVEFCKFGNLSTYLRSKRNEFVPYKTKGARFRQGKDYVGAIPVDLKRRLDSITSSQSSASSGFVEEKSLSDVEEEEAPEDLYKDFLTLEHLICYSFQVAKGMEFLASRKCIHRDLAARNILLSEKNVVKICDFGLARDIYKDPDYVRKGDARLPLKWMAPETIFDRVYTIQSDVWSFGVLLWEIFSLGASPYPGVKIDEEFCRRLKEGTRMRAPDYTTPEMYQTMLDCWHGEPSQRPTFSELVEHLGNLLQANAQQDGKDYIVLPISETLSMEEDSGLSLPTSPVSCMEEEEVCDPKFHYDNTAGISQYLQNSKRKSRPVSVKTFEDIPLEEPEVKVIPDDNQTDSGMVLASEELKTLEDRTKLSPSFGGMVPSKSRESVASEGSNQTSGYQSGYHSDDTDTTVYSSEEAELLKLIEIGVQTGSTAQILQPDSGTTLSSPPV
T2 sequence (P09619 33-1106): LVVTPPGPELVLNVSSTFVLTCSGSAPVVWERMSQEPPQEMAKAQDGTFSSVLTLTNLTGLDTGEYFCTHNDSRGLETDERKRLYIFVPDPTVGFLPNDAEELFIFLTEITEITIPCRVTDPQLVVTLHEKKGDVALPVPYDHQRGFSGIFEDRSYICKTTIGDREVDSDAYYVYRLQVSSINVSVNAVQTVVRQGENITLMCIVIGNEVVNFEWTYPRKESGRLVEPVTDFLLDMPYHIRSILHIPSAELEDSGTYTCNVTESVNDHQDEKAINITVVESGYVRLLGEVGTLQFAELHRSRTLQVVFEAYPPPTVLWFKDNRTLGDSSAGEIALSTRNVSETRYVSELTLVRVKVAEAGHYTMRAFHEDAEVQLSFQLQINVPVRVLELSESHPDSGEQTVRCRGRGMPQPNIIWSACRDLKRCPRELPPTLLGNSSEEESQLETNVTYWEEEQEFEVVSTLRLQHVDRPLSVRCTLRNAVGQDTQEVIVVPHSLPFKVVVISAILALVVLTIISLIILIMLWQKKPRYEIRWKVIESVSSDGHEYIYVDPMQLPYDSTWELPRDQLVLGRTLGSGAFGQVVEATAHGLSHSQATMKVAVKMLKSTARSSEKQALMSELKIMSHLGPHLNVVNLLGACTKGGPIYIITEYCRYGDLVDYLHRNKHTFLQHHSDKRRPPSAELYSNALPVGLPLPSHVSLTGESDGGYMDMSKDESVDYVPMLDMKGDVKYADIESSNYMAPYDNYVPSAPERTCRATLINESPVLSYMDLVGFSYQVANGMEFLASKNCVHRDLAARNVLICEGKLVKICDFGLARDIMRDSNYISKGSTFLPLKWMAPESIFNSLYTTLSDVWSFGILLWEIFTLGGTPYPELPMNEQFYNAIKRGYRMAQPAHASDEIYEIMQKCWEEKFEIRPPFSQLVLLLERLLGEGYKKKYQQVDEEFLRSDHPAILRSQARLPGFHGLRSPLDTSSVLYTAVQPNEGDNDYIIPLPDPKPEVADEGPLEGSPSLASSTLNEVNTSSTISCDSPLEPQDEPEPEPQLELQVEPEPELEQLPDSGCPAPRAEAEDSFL

Turning to “EWQTDNCETCTCYET (cysteine pairing not given here)”, the “PDGF-induced ERK phosphorylation” value with ERK [1] was “inhibition”. Also, in the test with VEGFR-2 (HUVEC), the “dose dependence of inhibition of VEGF-induced VEGFR-2 phosphorylation” value is recorded as “dose-dependent”. For the same sequence, in the test with VEGFR-2 (serum-starved HUVEC, 300 μg/ml, 24 h), the “phosphorylation of VEGFR-2 induced by VEGF” value is given as “inhibited”. Besides, the “time-course of effect on VEGF-induced ERK phosphorylation” value with ERK [2] (HUVEC, 3 and 24 hrs) is reported as “necessity of a long term action”. The “total amount of ERK” value in the test on ERK [2] (HUVEC, each sample of cells) is listed as “unaffected”. The “dose-response of ERK phosphorylation by VEGF” value in the test on ERK [2] (HUVEC, increasing doses) is “gradually inhibit”. Further, the “ERK phosphorylation induced by VEGF” value with ERK [2] (serum-starved HUVEC, 300 μg/ml for 24 h, then VEGF) was “specific inhibitory effect; also recorded: comparable to that of PD98059”. For the same sequence, the “ERK phosphorylation induced by bFGF” value in the test with ERK [2] (serum-starved HUVEC, 300 μg/ml for 24 h, then bFGF) is reported as “not that induced by bFGF”. For the same sequence, the “PDGFR phosphorylation induced by PDGF” value with PDGF receptor (PDGFR) was “inhibition”.

The record behind these values is US20050148514A1, “Method and composition for treatment of angiogenesis” (priority 2003, published 2005).
